Where only a bound is given, the exact number is not on record here.

This is an account of results in patent US8003691B2, “Antiviral and comma antibacterial pharmaceutical compositions of cantharidic anhydride and method of preparation thereof” (priority 2001, dated 2011).

Series [1] relates to staphylococcus. Type of series: cell-based.
Series [2] relates to tubercule bacillus. Type of series: cell-based.
A short description of series [3]: Solubility of cantharidic anhydride in water, fat and essential oil. Format: physicochemical. On the procedure:
In the pharmaceutical composition of the present invention, cantharidic anhydride is dissolved in essential oils or single constituent of essential oils to form cantharidic anhydride-essential oil preparation. The cantharidic anhydride has higher solubility in essential oil. […] That is to say, concentration of cantharidic anhydride in essential oil can be 14 times larger than that in fat and more than 200 time larger than that in water.

Series [4] relates to virus. Put plainly: Minimum concentration for virus deactivation. Format: cell-based.
The conditions of series [5]: human, in vivo.
The subject of series [6] is tubercule bacillus. As to conditions: reported in literature; cited from earlier work.

Consider `C[C@@]12C(=O)OC(=O)[C@]1(C)[C@H]1CC[C@@H]2O1` [cantharidic anhydride, Cantharidic anhydride], for which, in series [1], the “concentration in culture medium that can completely deactivate staphylococcus” value is 0.01 ppm. Besides, the “concentration in culture medium that can completely deactivate tubercule bacillus” value in series [2] is on record as 0.01 ppm. The “concentration of cantharidic anhydride in essential oil relative to that in fat” value in series [3] (essential oil vs fat) worked out at 14 times. Also, the “concentration of cantharidic anhydride in essential oil relative to that in water” value in series [3] (essential oil vs water) was “more than 200 time”. In series [3] (in essential oil), the “solubility in essential oil” value is listed as ≤ 0.7%. The molecule further registered a solubility in fat in series [3] (in fat) of 0.05%. The “solubility of cantharidic anhydride in water” value in series [3] (in water) is “approximately 0.003%”. The “minimum concentration for virus deactivation” value in series [4] is listed as 0.000132 ppm. In addition, in series [5], the “adverse reaction to liver and bone marrow” value was “does not have adverse reaction to liver and bone marrow”.

As to `[H]/N=C(/N)N[C@H]1[C@H](O)[C@@H](O)[C@H](O[C@@H]2O[C@@H](C)[C@](O)(C=O)[C@H]2O[C@@H]2O[C@@H](CO)[C@H](O)[C@@H](O)[C@@H]2NC)[C@@H](N/C(N)=N\[H])[C@@H]1O` [streptomycin], the “minimum concentration for tubercule bacillus deactivation” value in series [6] is reported as 10 ppm.
